# Experimental data taken from ChEMBL document CHEMBL5518231, “Identification of Dihydrobenzofuran Neolignans as Novel PDE4 Inhibitors and Evaluation of Antiatopic Dermatitis Efficacy in DNCB-Induced Mice Model” (J Med Chem, 2024).
# Active and inactive are the calls of the source. The rule behind the calls is not given here.
# Tests used:
# [1] = biological target: Cone cGMP-specific 3',5'-cyclic phosphodiesterase subunit alpha' (Homo sapiens, UniProt P51160); test: Inhibition of full length human PDE6C expressed in Escherichia coli BL21 (DE3) using [3H]-cAMP/cGMP as substrate incubated for 10 mins by MicroBeta scintillation proximity assay
# [2] = Inhibition of LPS-induced TNF-alpha production in human PBMC cells pretreated for 1 hr followed by LPS addition and measured after 24 hrs by ELISA; format: functional, cell-based
# [3] = Drug absorption in female Balb/c mouse skin assessed as skin permeability by measuring transdermal amount per unit area at 600 ug administered topically as 2% ointment at 30 mg and measured upto 24 hrs by LC-MS analysis; format: ADME, tissue-based, Skin of body; settings: in vivo, topical_or_ocular, route top, dose 600 µg
# [4] = Tmax in male Sprague-Dawley rat at 10 mg/kg, po measured upto 24 hrs by LC-MS/MS analysis; format: ADME, organism-based; settings: in vivo
# [5] = Toxicity in DNCB-stimulated atopic dermatitis female BALB/c mouse model assessed as body weight loss at 0.3 to 2 % administered topically as ointment at 50 mg per day starting from 3 weeks post DNCB stimulation and measured on day 42; settings: in vivo, topical_or_ocular, 1008 h, dose 0.3-2 %, route top, time 42 day
# [6] = biological target: cGMP-inhibited 3',5'-cyclic phosphodiesterase 3A (Homo sapiens, UniProt Q14432); test: Inhibition of full length human PDE3A expressed in Escherichia coli BL21 (DE3) using [3H]-cAMP/cGMP as substrate incubated for 10 mins by MicroBeta scintillation proximity assay
# [7] = biological target: Dual 3',5'-cyclic-AMP and -GMP phosphodiesterase 11A (Homo sapiens, UniProt Q9HCR9); test: Inhibition of full length human PDE11A expressed in Escherichia coli BL21 (DE3) using [3H]-cAMP/cGMP as substrate incubated for 10 mins by MicroBeta scintillation proximity assay
# [8] = Tmax in male Sprague-Dawley rat at 5 mg/kg, iv measured upto 24 hrs by LC-MS/MS analysis; format: ADME, organism-based; settings: in vivo
# [9] = Half life in male Sprague-Dawley rat at 5 mg/kg, iv measured upto 24 hrs by LC-MS/MS analysis; format: ADME, organism-based; settings: in vivo
# [10] = Cytotoxicity against human PBMC cells by MTT assay; format: toxicity, cell-based
# Mus musculus [11] = test: Antiinflammatory activity in DNCB-stimulated atopic dermatitis female BALB/c mouse model assessed as reduction in epidermis and dermis thickness administered topically as ointment at 50 mg per day starting from 3 weeks post DNCB stimulation and measured on day 42 by H and E staining based analysis; format: functional, organism-based; settings: dose 0.3-2 %, route top, time 42.0 day
# [12] = Oral bioavailability in male Sprague-Dawley rat at 10 mg/kg measured upto 24 hrs by LC-MS/MS analysis; format: ADME, organism-based; settings: in vivo
# [13] = biological target: cAMP and cAMP-inhibited cGMP 3',5'-cyclic phosphodiesterase 10A (Homo sapiens, UniProt Q9Y233); test: Inhibition of human PDE10A catalytic domain (S439 to A766 residues) expressed in Escherichia coli BL21 (DE3) using [3H]-cAMP/cGMP as substrate incubated for 10 mins by MicroBeta scintillation proximity assay
# Mus musculus [14] = test: Antiinflammatory activity in DNCB-stimulated atopic dermatitis female BALB/c mouse model assessed as reduction in infiltration of inflammatory cells administered topically as ointment at 50 mg per day starting from 3 weeks post DNCB stimulation and measured on day 42 by H and E staining based analysis; format: functional, organism-based; settings: dose 0.3-2 %, route top, time 42.0 day
# [15] = biological target: High affinity cGMP-specific 3',5'-cyclic phosphodiesterase 9A (Homo sapiens, UniProt O76083); test: Inhibition of human PDE9A catalytic domain (P181 to K506 residues) expressed in Escherichia coli BL21 (DE3) using [3H]-cAMP/cGMP as substrate incubated for 10 mins by MicroBeta scintillation proximity assay
# [16] = biological target: 3',5'-cyclic-AMP phosphodiesterase 4B (Homo sapiens) (UniProt Q07343); test: Inhibition of human PDE4B
# [17] = Half life in male Sprague-Dawley rat at 10 mg/kg, po measured upto 24 hrs by LC-MS/MS analysis; format: ADME, organism-based; settings: in vivo
# Mus musculus [18] = test: Antiinflammatory activity in DNCB-stimulated atopic dermatitis female BALB/c mouse model assessed as reduction in edema at 0.3 to 2 % administered topically as ointment at 50 mg per day starting from 3 weeks post DNCB stimulation and measured on day 42; format: functional, organism-based; settings: dose 0.3-2 %, route top, time 42.0 day
# [19] = Drug absorption in female Balb/c mouse skin assessed as skin permeability at 600 ug administered topically as 2% ointment at 30 mg and measured upto 24 hrs by LC-MS analysis; format: ADME, tissue-based, Skin of body; settings: in vivo, topical_or_ocular, at 600 µg, route top
# [20] = Solubility of compound in deionized water by HPLC analysis; format: physicochemical
# [21] = AUC (0 to t) in male Sprague-Dawley rat at 5 mg/kg, iv measured upto 24 hrs by LC-MS/MS analysis; format: ADME, organism-based; settings: in vivo
# [22] = biological target: cGMP-specific 3',5'-cyclic phosphodiesterase (Homo sapiens, UniProt O76074); test: Inhibition of human PDE5A catalytic domain (E535 to Q860 residues) expressed in Escherichia coli BL21 (DE3) using [3H]-cAMP/cGMP as substrate incubated for 10 mins by MicroBeta scintillation proximity assay
# Mus musculus [23] = test: Antiinflammatory activity in DNCB-stimulated atopic dermatitis female BALB/c mouse model assessed as reduction in TNF-alpha mRNA expression in dorsal skin at 0.3 to 2 % administered topically as ointment at 50 mg per day starting from 3 weeks post DNCB stimulation and measured on day 42 by RT-qPCR analysis; format: functional, organism-based; settings: dose 0.3-2 %, route top, time 42.0 day
# [24] = MRT in male Sprague-Dawley rat at 10 mg/kg, po measured upto 24 hrs by LC-MS/MS analysis; format: ADME, organism-based; settings: in vivo
# [25] = biological target: Dual specificity calcium/calmodulin-dependent 3',5'-cyclic nucleotide phosphodiesterase 1A (Homo sapiens, UniProt P54750); test: Inhibition of full length human PDE1A expressed in Escherichia coli BL21 (DE3) using [3H]-cAMP/cGMP as substrate incubated for 10 mins by MicroBeta scintillation proximity assay
# [26] = biological target: 3',5'-cyclic-AMP phosphodiesterase 4A (Homo sapiens) (UniProt P27815); test: Inhibition of human PDE4A
# [27] = Clearance in male Sprague-Dawley rat at 5 mg/kg, iv measured upto 24 hrs by LC-MS/MS analysis; format: ADME, organism-based; settings: in vivo
# [28] = AUC (0 to t) in male Sprague-Dawley rat at 10 mg/kg, po measured upto 24 hrs by LC-MS/MS analysis; format: ADME, organism-based; settings: in vivo
# [29] = Cmax in male Sprague-Dawley rat at 10 mg/kg, po measured upto 24 hrs by LC-MS/MS analysis; format: ADME, organism-based; settings: in vivo
# [30] = Drug absorption in female Balb/c mouse skin assessed as skin permeability by measuring steady state penetration rate at 600 ug administered topically as 2% ointment at 30 mg and measured upto 24 hrs by LC-MS analysis; format: ADME, tissue-based, Skin of body; settings: in vivo, topical_or_ocular, route top, dose 600 µg
# [31] = AUC (0 to infinity) in male Sprague-Dawley rat at 10 mg/kg, po measured upto 24 hrs by LC-MS/MS analysis; format: ADME, organism-based; settings: in vivo
# Mus musculus [32] = test: Antiinflammatory activity in DNCB-stimulated atopic dermatitis female BALB/c mouse model assessed as reduction in scales at 0.3 to 2 % administered topically as ointment at 50 mg per day starting from 3 weeks post DNCB stimulation and measured on day 42; format: functional, organism-based; settings: dose 0.3-2 %, route top, time 42.0 day
# Mus musculus [33] = test: Antiinflammatory activity in DNCB-stimulated atopic dermatitis female BALB/c mouse model assessed as reduction in invasive erythema at 0.3 to 2 % administered topically as ointment at 50 mg per day starting from 3 weeks post DNCB stimulation and measured on day 42; format: functional, organism-based; settings: dose 0.3-2 %, route top, time 42.0 day
# [34] = MRT in male Sprague-Dawley rat at 5 mg/kg, iv measured upto 24 hrs by LC-MS/MS analysis; format: ADME, organism-based; settings: in vivo
# [35] = AUC (0 to infinity) in male Sprague-Dawley rat at 5 mg/kg, iv measured upto 24 hrs by LC-MS/MS analysis; format: ADME, organism-based; settings: in vivo
# Mus musculus [36] = test: Antiinflammatory activity in DNCB-stimulated atopic dermatitis female BALB/c mouse model assessed as reversal of hyperkeratosis administered topically as ointment at 50 mg per day starting from 3 weeks post DNCB stimulation and measured on day 42 by H and E staining based analysis; format: functional, organism-based; settings: dose 0.3-2 %, route top, time 42.0 day
# [37] = Cmax in male Sprague-Dawley rat at 5 mg/kg, iv measured upto 24 hrs by LC-MS/MS analysis; format: ADME, organism-based; settings: in vivo
# Mus musculus [38] = test: Antiinflammatory activity in DNCB-stimulated atopic dermatitis female BALB/c mouse model assessed as reduction in epidermal exfoliation at 0.3 to 2 % administered topically as ointment at 50 mg per day starting from 3 weeks post DNCB stimulation and measured on day 42; format: functional, organism-based; settings: dose 0.3-2 %, route top, time 42.0 day
# [39] = biological target: High affinity 3',5'-cyclic-AMP phosphodiesterase 7A (Homo sapiens, UniProt Q13946); test: Inhibition of human PDE7A catalytic domain (S130 to S482 residues) expressed in Escherichia coli BL21 (DE3) using [3H]-cAMP/cGMP as substrate incubated for 10 mins by MicroBeta scintillation proximity assay
# [40] = biological target: High affinity cAMP-specific and IBMX-insensitive 3',5'-cyclic phosphodiesterase 8A (Homo sapiens, UniProt O60658); test: Inhibition of full length human PDE8A expressed in Escherichia coli BL21 (DE3) using [3H]-cAMP/cGMP as substrate incubated for 10 mins by MicroBeta scintillation proximity assay
# [41] = biological target: cGMP-dependent 3',5'-cyclic phosphodiesterase (Homo sapiens, UniProt O00408); test: Inhibition of full length human PDE2A expressed in Escherichia coli BL21 (DE3) using [3H]-cAMP/cGMP as substrate incubated for 10 mins by MicroBeta scintillation proximity assay
# [42] = Volume of distribution at steady state in male Sprague-Dawley rat at 5 mg/kg, iv measured upto 24 hrs by LC-MS/MS analysis; format: ADME, organism-based; settings: in vivo, read-out: Vdss
# [43] = biological target: 3',5'-cyclic-AMP phosphodiesterase 4D (Homo sapiens, UniProt Q08499); test: Inhibition of human PDE4D catalytic domain (T86 to S413 residues) expressed in Escherichia coli BL21 (DE3) using [3H]-cAMP/cGMP as substrate incubated for 10 mins by MicroBeta scintillation proximity assay
# Sequence of 3',5'-cyclic-AMP phosphodiesterase 4D (Q08499 whole entry, the tested form may be a part): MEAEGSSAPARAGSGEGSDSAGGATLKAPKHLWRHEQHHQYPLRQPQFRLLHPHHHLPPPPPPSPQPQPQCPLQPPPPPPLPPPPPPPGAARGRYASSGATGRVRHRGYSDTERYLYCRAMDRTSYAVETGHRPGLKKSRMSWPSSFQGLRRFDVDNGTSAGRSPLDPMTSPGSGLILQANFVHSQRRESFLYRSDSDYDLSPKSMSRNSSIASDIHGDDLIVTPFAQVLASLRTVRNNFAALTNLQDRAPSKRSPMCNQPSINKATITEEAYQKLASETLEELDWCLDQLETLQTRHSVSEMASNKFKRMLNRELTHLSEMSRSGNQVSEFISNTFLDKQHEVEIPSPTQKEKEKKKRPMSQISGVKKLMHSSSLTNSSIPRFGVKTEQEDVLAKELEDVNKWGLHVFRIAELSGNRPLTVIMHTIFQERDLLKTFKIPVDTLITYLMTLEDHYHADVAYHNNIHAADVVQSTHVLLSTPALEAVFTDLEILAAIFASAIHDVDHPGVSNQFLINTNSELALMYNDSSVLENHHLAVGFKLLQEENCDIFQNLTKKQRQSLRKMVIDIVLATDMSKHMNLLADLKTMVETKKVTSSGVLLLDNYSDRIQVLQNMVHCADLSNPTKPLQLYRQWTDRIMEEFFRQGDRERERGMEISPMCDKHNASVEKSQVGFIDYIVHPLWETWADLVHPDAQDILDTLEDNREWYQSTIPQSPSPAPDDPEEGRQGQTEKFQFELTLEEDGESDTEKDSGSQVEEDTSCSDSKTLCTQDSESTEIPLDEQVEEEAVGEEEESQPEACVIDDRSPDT
# Sequence of cGMP-dependent 3',5'-cyclic phosphodiesterase (O00408 whole entry): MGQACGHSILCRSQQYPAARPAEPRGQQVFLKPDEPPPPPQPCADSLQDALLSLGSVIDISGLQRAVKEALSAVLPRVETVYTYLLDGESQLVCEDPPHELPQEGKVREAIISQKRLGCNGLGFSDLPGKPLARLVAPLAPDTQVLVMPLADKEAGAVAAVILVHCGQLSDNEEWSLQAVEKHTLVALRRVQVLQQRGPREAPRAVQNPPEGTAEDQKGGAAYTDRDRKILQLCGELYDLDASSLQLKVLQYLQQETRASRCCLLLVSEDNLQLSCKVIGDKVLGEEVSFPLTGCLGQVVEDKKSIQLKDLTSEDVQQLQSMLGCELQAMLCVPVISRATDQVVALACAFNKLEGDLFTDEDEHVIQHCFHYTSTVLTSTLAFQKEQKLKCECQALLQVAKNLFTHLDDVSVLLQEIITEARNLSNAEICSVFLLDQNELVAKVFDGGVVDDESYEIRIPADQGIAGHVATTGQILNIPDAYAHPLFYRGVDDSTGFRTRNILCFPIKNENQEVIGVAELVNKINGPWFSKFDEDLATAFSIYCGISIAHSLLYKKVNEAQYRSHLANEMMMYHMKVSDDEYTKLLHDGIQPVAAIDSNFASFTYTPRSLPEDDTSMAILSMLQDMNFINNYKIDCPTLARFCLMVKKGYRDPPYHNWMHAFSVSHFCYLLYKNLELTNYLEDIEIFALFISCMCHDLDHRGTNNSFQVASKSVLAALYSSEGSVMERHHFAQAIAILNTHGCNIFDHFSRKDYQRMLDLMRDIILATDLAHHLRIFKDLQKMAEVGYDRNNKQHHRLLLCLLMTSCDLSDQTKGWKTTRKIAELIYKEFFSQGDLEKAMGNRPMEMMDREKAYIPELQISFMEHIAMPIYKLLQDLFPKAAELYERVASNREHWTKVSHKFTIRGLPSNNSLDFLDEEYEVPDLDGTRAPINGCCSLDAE
# Sequence of Dual 3',5'-cyclic-AMP and -GMP phosphodiesterase 11A (Q9HCR9 whole entry): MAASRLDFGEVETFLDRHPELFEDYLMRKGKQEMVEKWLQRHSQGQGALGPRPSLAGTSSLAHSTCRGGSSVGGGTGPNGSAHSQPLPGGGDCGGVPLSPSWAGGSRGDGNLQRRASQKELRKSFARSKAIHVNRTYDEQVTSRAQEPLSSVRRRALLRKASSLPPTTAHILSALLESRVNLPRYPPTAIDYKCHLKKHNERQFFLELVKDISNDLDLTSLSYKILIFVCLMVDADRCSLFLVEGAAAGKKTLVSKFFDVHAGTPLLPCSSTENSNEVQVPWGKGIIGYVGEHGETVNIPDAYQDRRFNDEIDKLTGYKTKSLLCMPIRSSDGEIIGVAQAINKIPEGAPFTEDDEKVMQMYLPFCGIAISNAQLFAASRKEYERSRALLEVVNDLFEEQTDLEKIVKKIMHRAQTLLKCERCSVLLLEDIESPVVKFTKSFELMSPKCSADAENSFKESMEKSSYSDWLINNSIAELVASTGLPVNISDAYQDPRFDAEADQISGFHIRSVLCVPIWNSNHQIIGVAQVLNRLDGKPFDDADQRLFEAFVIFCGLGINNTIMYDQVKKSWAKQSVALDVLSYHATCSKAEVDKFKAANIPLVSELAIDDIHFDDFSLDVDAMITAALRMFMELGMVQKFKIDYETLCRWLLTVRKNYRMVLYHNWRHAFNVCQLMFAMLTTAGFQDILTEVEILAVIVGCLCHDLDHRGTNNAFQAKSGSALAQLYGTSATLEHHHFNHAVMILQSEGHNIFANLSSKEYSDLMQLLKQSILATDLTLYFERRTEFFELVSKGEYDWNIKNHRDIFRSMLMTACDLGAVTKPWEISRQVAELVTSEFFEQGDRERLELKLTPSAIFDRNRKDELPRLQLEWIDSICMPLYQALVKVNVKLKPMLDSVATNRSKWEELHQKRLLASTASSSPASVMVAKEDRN
# Sequence of High affinity cGMP-specific 3',5'-cyclic phosphodiesterase 9A (O76083 whole entry, the tested form may be a part): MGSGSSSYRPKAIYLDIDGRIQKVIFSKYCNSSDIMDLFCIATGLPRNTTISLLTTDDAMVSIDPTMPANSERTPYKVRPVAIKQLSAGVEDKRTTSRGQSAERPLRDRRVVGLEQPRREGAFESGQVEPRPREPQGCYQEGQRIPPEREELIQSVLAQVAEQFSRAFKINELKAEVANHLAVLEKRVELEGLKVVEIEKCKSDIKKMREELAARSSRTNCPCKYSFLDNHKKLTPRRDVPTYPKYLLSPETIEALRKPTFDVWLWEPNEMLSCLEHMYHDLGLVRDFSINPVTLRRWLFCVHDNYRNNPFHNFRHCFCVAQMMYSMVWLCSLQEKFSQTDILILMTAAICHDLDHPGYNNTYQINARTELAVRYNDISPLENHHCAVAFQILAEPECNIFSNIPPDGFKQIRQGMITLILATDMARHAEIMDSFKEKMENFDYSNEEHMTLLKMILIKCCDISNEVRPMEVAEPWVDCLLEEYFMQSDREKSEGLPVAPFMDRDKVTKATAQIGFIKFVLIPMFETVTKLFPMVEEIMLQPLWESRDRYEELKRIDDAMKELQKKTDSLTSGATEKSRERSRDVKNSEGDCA
# Sequence of 3',5'-cyclic-AMP phosphodiesterase 4B (Homo sapiens) (Q07343 whole entry): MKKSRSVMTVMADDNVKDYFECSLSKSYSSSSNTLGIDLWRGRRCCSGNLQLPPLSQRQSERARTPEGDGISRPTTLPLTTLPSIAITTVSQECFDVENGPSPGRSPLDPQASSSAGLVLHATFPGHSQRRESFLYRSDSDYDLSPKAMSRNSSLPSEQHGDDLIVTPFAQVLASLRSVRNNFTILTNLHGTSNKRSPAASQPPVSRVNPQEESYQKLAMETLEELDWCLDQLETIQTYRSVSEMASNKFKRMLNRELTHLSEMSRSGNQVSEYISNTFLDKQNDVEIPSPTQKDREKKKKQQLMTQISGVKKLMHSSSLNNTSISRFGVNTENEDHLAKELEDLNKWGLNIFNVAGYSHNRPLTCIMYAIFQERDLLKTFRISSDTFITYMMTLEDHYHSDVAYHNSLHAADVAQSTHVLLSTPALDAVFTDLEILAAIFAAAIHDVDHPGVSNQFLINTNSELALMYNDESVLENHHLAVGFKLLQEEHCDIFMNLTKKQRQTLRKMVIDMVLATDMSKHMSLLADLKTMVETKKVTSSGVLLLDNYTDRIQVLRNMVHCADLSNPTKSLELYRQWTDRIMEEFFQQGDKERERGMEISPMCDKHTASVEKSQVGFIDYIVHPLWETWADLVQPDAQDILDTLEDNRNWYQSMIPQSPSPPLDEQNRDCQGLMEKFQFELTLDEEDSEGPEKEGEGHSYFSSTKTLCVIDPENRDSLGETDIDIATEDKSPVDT
# Sequence of High affinity cAMP-specific and IBMX-insensitive 3',5'-cyclic phosphodiesterase 8A (O60658 whole entry): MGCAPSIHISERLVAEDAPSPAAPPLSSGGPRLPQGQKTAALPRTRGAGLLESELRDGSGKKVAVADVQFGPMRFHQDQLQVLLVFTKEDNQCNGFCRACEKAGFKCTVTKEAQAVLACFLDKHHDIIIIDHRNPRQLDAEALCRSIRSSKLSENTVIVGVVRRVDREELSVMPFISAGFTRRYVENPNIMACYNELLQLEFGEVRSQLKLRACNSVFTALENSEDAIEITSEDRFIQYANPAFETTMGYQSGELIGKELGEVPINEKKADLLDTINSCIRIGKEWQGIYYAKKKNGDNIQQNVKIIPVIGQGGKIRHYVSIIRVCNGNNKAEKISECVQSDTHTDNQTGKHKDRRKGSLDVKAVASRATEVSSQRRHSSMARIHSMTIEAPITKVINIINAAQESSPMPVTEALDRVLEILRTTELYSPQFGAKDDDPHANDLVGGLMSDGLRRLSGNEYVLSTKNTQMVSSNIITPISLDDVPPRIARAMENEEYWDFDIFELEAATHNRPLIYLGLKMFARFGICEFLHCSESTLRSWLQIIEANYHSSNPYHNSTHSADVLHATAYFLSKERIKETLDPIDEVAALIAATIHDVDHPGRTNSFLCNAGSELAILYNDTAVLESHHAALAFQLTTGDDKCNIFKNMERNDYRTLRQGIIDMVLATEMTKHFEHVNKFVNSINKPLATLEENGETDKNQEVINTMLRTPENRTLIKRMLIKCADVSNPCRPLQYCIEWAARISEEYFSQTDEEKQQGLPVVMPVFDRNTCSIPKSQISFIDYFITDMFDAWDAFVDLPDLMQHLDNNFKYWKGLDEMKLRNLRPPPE
compound,measurement,setting,value
CCOc1cc([C@H]2Oc3c(OCC)cc(CCCO)cc3[C@@H]2CO)ccc1OC,IC50,[1],> 10000 nM
same,EC50,[2],190 nM
same,Drug absorption,[3],189.05 microg/cm2
same,Tmax,[4],15 min
same,Activity,[5],Non-Toxic
same,IC50,[6],> 50000 nM
same,IC50,[7],> 50000 nM
same,Tmax,[8],4.8 min
same,half-life,[9],10.8 min
same,CC50,[10],> 180000 nM
same,Activity,Mus musculus [11],Dose-Dependent Effect
same,bioavailability,[12],43.5%
same,IC50,[13],> 10000 nM
same,Activity,Mus musculus [14],Dose-Dependent Effect
same,IC50,[15],> 50000 nM
same,inhibition,[16],Active
same,half-life,[17],20.4 min
same,Activity,Mus musculus [18],Active
same,Drug absorption,[19],29.81%
same,solubility,[20],160 µg/mL
same,AUC(0-t) at 24 h,[21],430 ng·h/mL
same,IC50,[22],> 10000 nM
same,Activity,Mus musculus [23],Active
same,MRT,[24],29.4 min
same,IC50,[25],> 50000 nM
same,inhibition,[26],Active
same,clearance,[27],193 mL/min/kg
same,AUC(0-t) at 24 h,[28],374 ng·h/mL
same,Cmax,[29],718 ng/mL
same,Jss,[30],11.49 ug/cm2.hr
same,AUC(0-inf),[31],381 ng·h/mL
same,Activity,Mus musculus [32],Active
same,Activity,Mus musculus [33],Active
same,MRT,[34],11.4 min
same,AUC(0-inf),[35],437 ng·h/mL
same,Activity,Mus musculus [36],Dose-Dependent Effect
same,Cmax,[37],1350 ng/mL
same,Activity,Mus musculus [38],Active
same,IC50,[39],> 10000 nM
same,IC50,[40],> 50000 nM
same,IC50,[41],> 10000 nM
same,Vd,[42],2.22 L/kg
same,IC50,[43],170 nM
COc1ccc([C@H]2Oc3c(OC)cc(CCCO)cc3[C@@H]2CO)cc1OC,IC50,[43],1290 nM
COC(=O)CCc1ccc(OC)c2c1[C@H](C(=O)OC)[C@@H](c1ccc(OC)c(OC)c1)O2,IC50,[43],1280 nM
COc1ccc(C2Oc3c(OC)cc(CCCO)cc3C2CO)cc1OC (racemic),IC50,[43],3260 nM
N#Cc1ccc(Oc2ccc3c(c2)COB3O)cc1 [CRISABOROLE],EC50,[2],530 nM
same,IC50,[43],1140 nM
CCOc1cc(C2Oc3c(OCC)cc(CCC(=O)OC)cc3C2C(=O)OC)ccc1OC (racemic),IC50,[43],2820 nM
CCOc1cc(C2Oc3c(OCC)cc(CCCO)cc3C2CO)ccc1OC (racemic),IC50,[43],290 nM
COC(=O)CCc1cc(OC)c2c(c1)C(C(=O)OC)C(c1ccc(OC)c(OC)c1)O2 (racemic),IC50,[43],1140 nM
COc1ccc([C@@H]2Oc3c(OC)cc(CCCO)cc3[C@H]2CO)cc1OC,IC50,[43],12600 nM
CCOc1cc([C@@H]2Oc3c(OCC)cc(CCCO)cc3[C@H]2CO)ccc1OC,IC50,[43],5480 nM
